Test results taken from ChEMBL document CHEMBL2057090, “Discovery of novel PI3Kγ/δ inhibitors as potential agents for inflammation” (Bioorg Med Chem Lett, 2012).
In brackets after ≈: the same amount, converted by molar mass.

What was measured:
[1] = biological target: Phosphatidylinositol 4,5-bisphosphate 3-kinase catalytic subunit gamma isoform (Homo sapiens, UniProt P48736); experiment: Inhibition of PI3Kgamma in human HL60 cell lysate by kinobead assay
[2] = biological target: Phosphatidylinositol 4,5-bisphosphate 3-kinase catalytic subunit beta isoform (Homo sapiens, UniProt P42338); experiment: Inhibition of PI3Kbeta in human HL60 cell lysate by kinobead assay; format: cell-free, HL-60
Chain of Phosphatidylinositol 4,5-bisphosphate 3-kinase catalytic subunit beta isoform (P42338 whole entry, canonical isoform): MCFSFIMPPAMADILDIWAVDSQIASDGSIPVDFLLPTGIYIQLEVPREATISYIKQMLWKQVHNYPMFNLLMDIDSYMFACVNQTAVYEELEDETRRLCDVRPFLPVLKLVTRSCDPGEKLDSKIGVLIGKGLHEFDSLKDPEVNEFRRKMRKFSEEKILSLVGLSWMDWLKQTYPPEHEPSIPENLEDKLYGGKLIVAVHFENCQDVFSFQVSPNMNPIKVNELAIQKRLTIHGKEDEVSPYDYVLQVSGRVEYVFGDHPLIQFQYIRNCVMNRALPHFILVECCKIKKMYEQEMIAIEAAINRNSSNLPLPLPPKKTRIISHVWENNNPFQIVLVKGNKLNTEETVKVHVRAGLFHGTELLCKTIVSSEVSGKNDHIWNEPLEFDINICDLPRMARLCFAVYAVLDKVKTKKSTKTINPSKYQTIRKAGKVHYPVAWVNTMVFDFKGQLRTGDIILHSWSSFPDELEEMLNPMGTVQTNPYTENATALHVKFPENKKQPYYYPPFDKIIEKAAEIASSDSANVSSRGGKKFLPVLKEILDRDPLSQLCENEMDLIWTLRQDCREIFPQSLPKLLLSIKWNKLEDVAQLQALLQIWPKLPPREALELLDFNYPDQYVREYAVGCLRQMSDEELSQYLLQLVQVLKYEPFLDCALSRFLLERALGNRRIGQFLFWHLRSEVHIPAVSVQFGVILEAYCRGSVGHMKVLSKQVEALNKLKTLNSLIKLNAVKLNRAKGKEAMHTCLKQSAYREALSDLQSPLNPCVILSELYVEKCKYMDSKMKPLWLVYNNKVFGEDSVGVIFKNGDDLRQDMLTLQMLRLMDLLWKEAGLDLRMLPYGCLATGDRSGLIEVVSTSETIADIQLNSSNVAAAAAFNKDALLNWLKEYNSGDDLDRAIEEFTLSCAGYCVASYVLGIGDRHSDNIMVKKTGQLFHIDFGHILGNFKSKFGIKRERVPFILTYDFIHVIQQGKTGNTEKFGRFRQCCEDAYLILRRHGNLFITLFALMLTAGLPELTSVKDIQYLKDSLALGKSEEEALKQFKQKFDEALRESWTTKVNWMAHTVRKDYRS

[3] = biological target: Phosphatidylinositol 4,5-bisphosphate 3-kinase catalytic subunit alpha isoform (Homo sapiens, UniProt P42336); experiment: Inhibition of PI3Kalpha in human HL60 cell lysate by kinobead assay
Chain of Phosphatidylinositol 4,5-bisphosphate 3-kinase catalytic subunit alpha isoform (P42336 whole entry, canonical isoform): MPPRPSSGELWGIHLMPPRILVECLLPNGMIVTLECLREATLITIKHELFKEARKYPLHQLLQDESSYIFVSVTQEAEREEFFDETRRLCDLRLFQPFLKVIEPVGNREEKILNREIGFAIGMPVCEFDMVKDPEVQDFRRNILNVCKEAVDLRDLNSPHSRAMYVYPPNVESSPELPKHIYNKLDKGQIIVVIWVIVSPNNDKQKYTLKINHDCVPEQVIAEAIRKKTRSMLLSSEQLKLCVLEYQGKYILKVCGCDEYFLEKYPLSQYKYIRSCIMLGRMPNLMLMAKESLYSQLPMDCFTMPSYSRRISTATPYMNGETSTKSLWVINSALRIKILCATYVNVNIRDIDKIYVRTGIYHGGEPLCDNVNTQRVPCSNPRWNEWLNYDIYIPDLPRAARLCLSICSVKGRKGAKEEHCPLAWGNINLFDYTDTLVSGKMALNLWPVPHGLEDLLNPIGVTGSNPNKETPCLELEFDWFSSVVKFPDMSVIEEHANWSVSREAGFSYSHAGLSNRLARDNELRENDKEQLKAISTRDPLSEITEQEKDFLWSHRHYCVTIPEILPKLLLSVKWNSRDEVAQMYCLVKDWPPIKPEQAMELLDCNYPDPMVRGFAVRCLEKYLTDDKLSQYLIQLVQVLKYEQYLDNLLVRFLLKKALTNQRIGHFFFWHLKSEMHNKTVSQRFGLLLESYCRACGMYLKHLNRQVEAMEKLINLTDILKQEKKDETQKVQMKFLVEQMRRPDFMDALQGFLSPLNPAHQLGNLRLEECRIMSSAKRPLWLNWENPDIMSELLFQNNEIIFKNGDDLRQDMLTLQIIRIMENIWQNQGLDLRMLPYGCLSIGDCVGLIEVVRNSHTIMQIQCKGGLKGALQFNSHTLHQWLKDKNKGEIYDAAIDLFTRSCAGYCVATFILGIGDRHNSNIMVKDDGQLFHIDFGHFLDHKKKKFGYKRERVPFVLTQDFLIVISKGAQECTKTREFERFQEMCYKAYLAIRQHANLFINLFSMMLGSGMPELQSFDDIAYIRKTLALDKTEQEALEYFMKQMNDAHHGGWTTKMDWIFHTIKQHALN

[4] = biological target: T1, Phosphatidylinositol 4,5-bisphosphate 3-kinase catalytic subunit delta isoform (Homo sapiens, UniProt O00329); experiment: Inhibition of PI3Kdelta in human HL60 cell lysate by kinobead assay
T1 sequence (O00329 whole entry): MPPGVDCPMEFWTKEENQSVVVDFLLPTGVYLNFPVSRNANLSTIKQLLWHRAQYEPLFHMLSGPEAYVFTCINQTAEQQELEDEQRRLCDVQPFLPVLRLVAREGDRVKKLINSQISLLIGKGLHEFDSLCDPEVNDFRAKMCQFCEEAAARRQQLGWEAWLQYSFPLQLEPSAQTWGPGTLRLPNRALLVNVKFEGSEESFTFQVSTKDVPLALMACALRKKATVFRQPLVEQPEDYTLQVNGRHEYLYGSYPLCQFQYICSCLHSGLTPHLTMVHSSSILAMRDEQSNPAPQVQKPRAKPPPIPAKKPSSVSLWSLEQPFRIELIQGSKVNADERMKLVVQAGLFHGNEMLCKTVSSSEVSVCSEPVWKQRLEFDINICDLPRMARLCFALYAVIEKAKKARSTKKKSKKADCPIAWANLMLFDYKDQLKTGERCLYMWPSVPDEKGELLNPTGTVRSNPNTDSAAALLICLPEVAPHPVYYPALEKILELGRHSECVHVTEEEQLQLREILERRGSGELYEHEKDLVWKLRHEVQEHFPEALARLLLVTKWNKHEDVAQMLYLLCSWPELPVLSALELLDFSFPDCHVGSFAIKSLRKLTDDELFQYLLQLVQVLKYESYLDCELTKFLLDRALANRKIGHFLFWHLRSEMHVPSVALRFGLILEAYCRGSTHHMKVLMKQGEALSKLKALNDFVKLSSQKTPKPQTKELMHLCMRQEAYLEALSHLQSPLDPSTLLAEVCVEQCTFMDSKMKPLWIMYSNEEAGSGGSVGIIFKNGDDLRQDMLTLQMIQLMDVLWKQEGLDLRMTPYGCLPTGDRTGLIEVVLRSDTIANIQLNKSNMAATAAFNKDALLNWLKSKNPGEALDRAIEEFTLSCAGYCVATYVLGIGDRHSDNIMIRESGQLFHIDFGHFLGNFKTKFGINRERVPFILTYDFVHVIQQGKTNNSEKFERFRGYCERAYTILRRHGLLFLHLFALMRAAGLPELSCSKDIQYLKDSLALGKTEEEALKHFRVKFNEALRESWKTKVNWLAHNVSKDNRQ

[5] = Antiinflammatory activity in human neutrophils assessed as inhibition of fMLP-induced migration; format: functional, cell-based; conditions: Neutrophil
[6] = Apparent permeability from apical to basal side of human Caco2 cells; format: ADME, cell-based; conditions: Caco-2
[7] = Kinetic solubility in 1%DMSO solution; format: physicochemical; conditions: read-out: Kinetic_solubility
[8] = Efflux ratio of apparent permeability across human Caco2 cells; format: ADME, cell-based; conditions: Caco-2
Liver microsomes [9] = experiment: Intrinsic clearance in rat liver microsomes assessed per g of liver; format: ADME, Microsome
Liver microsomes [10] = experiment: Intrinsic clearance in human liver microsomes assessed per g of liver; format: ADME, Microsome
Mus musculus = experiment: Antiinflammatory activity in BALB/c mouse assessed as reduction in LPS-induced neutrophil accumulation in bronchoalveolar lung fluid at 0.5 mg, it administered 1 hr prior to LPS-challenge and measured after 8 hrs relative to vehicle treated control; format: functional; design: scale not given: the % may be the effect or the level left
[11] = Clearance in iv dosed rat; format: ADME, organism-based; conditions: in vivo
Plasma [12] = experiment: Drug metabolism in iv dosed rat plasma assessed as CZC19945 formation; format: ADME, organism-based; conditions: in vivo
Plasma [13] = experiment: Drug metabolism in iv dosed rat plasma assessed as 2-(3-(6-(5-(N-tert-butylsulfamoyl)pyridin-3-yl)-[1,2,4]triazolo[1,5-a]pyridin-2-yl)ureido)acetic acid formation; format: ADME, organism-based; conditions: in vivo

Chain of Phosphatidylinositol 4,5-bisphosphate 3-kinase catalytic subunit gamma isoform (P48736 whole entry, canonical isoform): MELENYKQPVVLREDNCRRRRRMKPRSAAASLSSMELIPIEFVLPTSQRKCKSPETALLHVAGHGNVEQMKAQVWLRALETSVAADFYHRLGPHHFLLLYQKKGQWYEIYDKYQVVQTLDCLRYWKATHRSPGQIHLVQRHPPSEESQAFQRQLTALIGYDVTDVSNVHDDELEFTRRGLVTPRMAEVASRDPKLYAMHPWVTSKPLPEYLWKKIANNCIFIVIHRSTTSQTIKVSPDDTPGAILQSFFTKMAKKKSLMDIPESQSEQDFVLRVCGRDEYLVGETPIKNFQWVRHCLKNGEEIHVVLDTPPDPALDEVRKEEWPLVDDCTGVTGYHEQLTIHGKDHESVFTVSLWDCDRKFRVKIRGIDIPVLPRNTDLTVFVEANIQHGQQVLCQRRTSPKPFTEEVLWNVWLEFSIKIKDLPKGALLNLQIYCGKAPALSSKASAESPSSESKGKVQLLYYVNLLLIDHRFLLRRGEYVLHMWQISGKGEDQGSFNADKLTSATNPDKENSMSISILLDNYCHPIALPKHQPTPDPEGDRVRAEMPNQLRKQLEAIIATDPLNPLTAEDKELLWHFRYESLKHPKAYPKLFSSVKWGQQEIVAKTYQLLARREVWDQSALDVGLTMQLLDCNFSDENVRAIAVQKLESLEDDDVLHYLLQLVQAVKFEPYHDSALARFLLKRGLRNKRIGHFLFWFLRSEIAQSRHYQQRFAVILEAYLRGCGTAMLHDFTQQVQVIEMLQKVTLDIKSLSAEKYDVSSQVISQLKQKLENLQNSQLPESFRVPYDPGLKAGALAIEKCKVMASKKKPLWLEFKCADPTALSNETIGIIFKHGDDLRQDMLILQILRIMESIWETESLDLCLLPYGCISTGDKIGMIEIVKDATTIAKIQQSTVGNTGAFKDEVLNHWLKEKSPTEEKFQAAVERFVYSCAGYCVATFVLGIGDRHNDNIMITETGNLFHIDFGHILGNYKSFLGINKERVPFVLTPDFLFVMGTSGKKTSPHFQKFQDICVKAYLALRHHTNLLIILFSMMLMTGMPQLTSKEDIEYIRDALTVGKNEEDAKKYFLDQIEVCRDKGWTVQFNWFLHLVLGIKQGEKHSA

IC50 [1] [µM] | IC50 [2] [µM] | IC50 [3] [µM] | IC50 [4] [µM] | IC50 [5] [µM] | Papp A→B [6] [nm/s] | solubility kinetic [7] [µM] | efflux ratio [8] | CLint (Liver microsomes [9]) [mL/min/g] | CLint (Liver microsomes [10]) [mL/min/g] | clearance [11] [L/h/kg] | Drug metabolism (Plasma [12]) | Drug metabolism (Plasma [13]) | SMILES | Activity (Mus musculus) [%]
0.00316 | 1.26 | 12.6 | 0.0794 | 0.794 | 5.4 | < 6.5 | 109 | 0.9 | 0.5 |  |  |  | CN(C)C(=O)CNC(=O)Nc1nc2ccc(-c3cncc(S(=O)(=O)NC(C)(C)C)c3)cn2n1 | 
0.0158 | > 2 | > 15.8 | 0.794 | 20 |  |  |  |  |  |  |  |  | CNC(=O)CNC(=O)Nc1nc2ccc(-c3cncc(S(=O)(=O)NC(C)(C)C)c3)cn2n1 | 
0.00631 | 1.26 | 1 | 0.0631 | 1.58 |  |  |  |  |  |  |  |  | CC(C)(C)NS(=O)(=O)c1cncc(-c2ccc3nc(NC(=O)NCC(=O)N4CCCC4)nn3c2)c1 | 
0.00398 | 0.398 | 0.398 | 0.0158 | 0.501 |  | > 100 |  | 0.8 | 0 | > 12 | Not Active | Not Active | CC(C)(C)NS(=O)(=O)c1cncc(-c2ccc3nc(NC(=O)NCC(=O)N4CCOCC4)nn3c2)c1 | 34
0.00251 | 1 | 0.794 | 0.0126 | 1.26 |  |  |  |  |  |  |  |  | CN1CCN(C(=O)CNC(=O)Nc2nc3ccc(-c4cncc(S(=O)(=O)NC(C)(C)C)c4)cn3n2)CC1 | 
0.0126 | 0.398 | > 5.01 | 0.794 | 0.794 |  |  |  |  |  |  |  |  | CNC(=O)Nc1nc2ccc(-c3cncc(S(=O)(=O)NC(C)(C)C)c3)cn2n1 | 
0.0158 | > 0.2 | 1.26 | 0.02 | 0.0501 |  | 65 (≈ 32.7 µg/mL) |  | 0.9 | 1.4 |  |  |  | CC(C)(C)NS(=O)(=O)c1cncc(-c2ccc3nc(NC(=O)NCCN4CCOCC4)nn3c2)c1 | 

The next lines start with the molecule.

SMILES | IC50 [1] [µM] | IC50 [2] [µM] | IC50 [3] [µM] | IC50 [4] [µM] | IC50 [5] [µM] | Papp A→B [6] [nm/s] | solubility kinetic [7] [µM] | efflux ratio [8] | CLint (Liver microsomes [9]) [mL/min/g] | CLint (Liver microsomes [10]) [mL/min/g] | clearance [11] [L/h/kg] | Drug metabolism (Plasma [12]) | Drug metabolism (Plasma [13]) | Activity (Mus musculus) [%]
CC(C)(C)NS(=O)(=O)c1cncc(-c2ccc3nc(NC(=O)Nc4ccccc4)nn3c2)c1 | 0.251 | > 100 | > 100 | > 25.1 |  |  |  |  |  |  |  |  |  | 
CC(C)(C)NS(=O)(=O)c1cncc(-c2ccc3nc(NC(=O)NCc4ccccc4)nn3c2)c1 | 0.0631 | 3.16 | > 20 | 1.58 | 1.58 |  |  |  |  |  |  |  |  | 
CC(C)(C)NS(=O)(=O)c1cncc(-c2ccc3nc(NC(=O)NCCc4ccccc4)nn3c2)c1 | 0.0316 | 1 | > 3.16 | 0.0251 | 0.398 |  |  |  |  |  |  |  |  | 
Cc1noc(C)c1CCNC(=O)Nc1nc2ccc(-c3cncc(S(=O)(=O)NC(C)(C)C)c3)cn2n1 | 0.0251 | 0.0794 | 2 | 0.0126 | 0.251 |  |  |  |  |  |  |  |  | 
CC(C)(C)NS(=O)(=O)c1cncc(-c2ccc3nc(NC(=O)NCCn4cccn4)nn3c2)c1 | 0.0251 | 0.631 | 0.631 | 0.2 | 0.158 |  |  |  |  |  |  |  |  | 
Cc1nc(CCNC(=O)Nc2nc3ccc(-c4cncc(S(=O)(=O)NC(C)(C)C)c4)cn3n2)cs1 | 0.00794 | > 0.2 | 0.794 | 0.0158 | 0.398 |  |  |  |  |  |  |  |  | 
CC(C)(C)NS(=O)(=O)c1cncc(-c2ccc3nc(NC(=O)NCCc4cnccn4)nn3c2)c1 | 0.00631 | 0.126 | 1.26 | 0.0251 | 0.126 |  |  |  |  |  |  |  |  | 
CC(C)(C)NS(=O)(=O)c1cncc(-c2ccc3nc(NC(=O)NCCc4nnc(C5CC5)o4)nn3c2)c1 | 0.01 | 0.251 | 3.16 | 0.0794 | 0.316 |  |  |  |  |  |  |  |  | 
CC(C)(C)NS(=O)(=O)c1cncc(-c2ccc3nc(NC(=O)NCCn4nnc(C5CC5)n4)nn3c2)c1 | 0.00251 | 0.0631 | 0.794 | 0.00631 | 0.0794 | 0.8 | > 100 | 252 | 0.4 | 0 |  |  |  | 37
CC(C)(C)NS(=O)(=O)c1cncc(-c2ccc3nc(NC(=O)NCCCn4nnc(C5CC5)n4)nn3c2)c1 | 0.0631 | 2.51 | > 6.31 | 0.0501 | 0.251 |  |  |  |  |  |  |  |  | 
CS(=O)(=O)c1cncc(-c2ccc3nc(N)nn3c2)c1 | 0.1 | 2.51 | 10 | 6.31 |  |  |  |  |  |  |  |  |  | 
CC(C)(C)NS(=O)(=O)c1cncc(-c2ccc3nc(N)nn3c2)c1 | 0.0251 | 0.2 | 2.51 | 1.58 | 1 |  |  |  |  |  |  |  |  | 
CC(C)(C)NS(=O)(=O)c1cncc(-c2ccc3nc(NC(=O)N4CCOCC4)nn3c2)c1 | 0.126 | 3.98 | > 25.1 | 3.16 | 7.94 |  |  |  |  |  |  |  |  | 
CN(C)CCNC(=O)Nc1nc2ccc(-c3cncc(S(=O)(=O)NC(C)(C)C)c3)cn2n1 | 0.126 | > 1 | > 5.01 | 1.26 | 12.6 |  |  |  |  |  |  |  |  | 
